PMC11784839, “Monoaminergic neurotransmitters are bimodal effectors of tau aggregation” (Science Advances, 2025)

Biological target: tau (Homo sapiens, UniProt P10636)
Test: MCE Phenols Library screening, tau biosensor cell seeding assay (AvZ)
Type: cell-based
Settings: for Z repl 1 / Z Repl 2: Z score; for Z repl 1 / raw data 1: replicate 1; for raw data 2 / Z Repl 2: replicate 2; for AvZ (average z score of seeding, SDs from the mean level of seeding): 10 μM phenol in cell cultures, AD brain homogenate preincubated 16 hours, two biological replicates, positive = catalyzes seeding, negative = inhibits
[1] = average Z score of the two replicates, MCE Phenols Library screen
[2] = average puncta of the two replicates
[3] = average Z score of the two replicates, tau biosensor seeding, MCE Phenols Library screen
[4] = average Z score of the two replicates, tau seeding
[5] = average Z score of two replicates, Phenols Library screen

Sequence of tau (P10636 623-695 limits assumed): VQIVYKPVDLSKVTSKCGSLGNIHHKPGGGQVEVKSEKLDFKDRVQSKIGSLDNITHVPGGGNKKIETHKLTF

Row | Compound | Z repl 1 | av Z [1] | av puncta (average of raw data 1 and 2) | raw data 1 (puncta) | raw data 2 (puncta) | AvZ (average z score of seeding, SDs from the mean level of seeding) | Z Repl 2 | av puncta [2] | av Z [3] | raw data 1 (raw puncta) | raw data 2 (raw puncta) | av Z [4] | AvZ (average z score of seeding, SDs from the mean level of seeding) (listed as 6-Hydroxy melatonin) | av Z [5]
1 | OC[C@H]1O[C@@H](Oc2cc3c(O)cc(O)cc3[o+]c2-c2cc(O)c(O)c(O)c2)[C@H](O)[C@@H](O)[C@@H]1O.[Cl-] [Delphinidin 3-glucoside (chloride)] | -1.229 | -1.2 | 5928.77 | 11598.4 | 259.098 |  |  |  |  |  |  |  |  | 
2 | O=Cc1cccc(O)c1 [3-Hydroxybenzaldehyde] | 0.08 |  | 18142.7 | 27305.1 | 8980.23 | -0.137 | -0.354 |  |  |  |  |  |  | 
3 | O=C(O)C(O)c1ccc(O)cc1 (stereo not shown) [p-Hydroxymandelic acid] | 0.77 |  | 32106.2 | 35598.4 | 28613.9 | 1.127 | 1.484 |  |  |  |  |  |  | 
4 | O=c1c(-c2ccc(O)c(O)c2)coc2c([C@@H]3O[C@H](CO)[C@@H](O)[C@H](O)[C@H]3O)c(O)ccc12 [3'-Hydroxypuerarin] | -0.715 | -0.53 |  | 17766.4 | 9073.25 |  | -0.346 | 13419.8 |  |  |  |  |  | 
5 | Oc1cc(O)c2c(c1)O[C@@H](c1cc(O)c(O)c(O)c1)[C@H](O)C2 [(-)-Gallocatechin] | -1.316 | -1.032 | 7661.42 | 10555.6 | 4767.22 |  | -0.749 |  |  |  |  |  |  | 
6 | Thymopentin [reference compound] | -1.145 |  |  | 12607.7 | 10414 | -0.682 | -0.22 | 11510.9 |  |  |  |  |  | 
7 | O=C(O)C[C@H](C(=O)O)[C@H]1c2c(cc(O)c(O)c2O)C(=O)O[C@@H]1C(=O)O [Chebulic acid] | -1.01 | -1.092 | 7230.09 | 14229.4 | 230.797 |  |  |  |  |  |  |  |  | 
8 | N[C@@H](Cc1ccc(O)c(Cl)c1)C(=O)O [3-Chloro-L-tyrosine] | 0.451 |  | 19517.9 | 31767.4 | 7268.49 | -0.032 | -0.515 |  |  |  |  |  |  | 
9 | O=C(O[C@@H]1Cc2c(O)cc(O)cc2O[C@@H]1c1cc(O)c(O)c2c(=O)c(O)cc([C@H]3Oc4cc(O)cc(O)c4C[C@H]3O)cc12)c1cc(O)c(O)c(O)c1 [Theaflavin-3'-gallate] | -2.15 |  | 320.554 | 542.499 | 98.608 |  | -1.186 |  |  |  |  |  |  | 
10 | CC(=O)c1c(O)c(C)c(O)c2c1OC1=CC(=O)C(C(C)=O)C(=O)C12C (stereo not shown) [Usnic acid] | 1.459 |  | 32238.5 | 43858.6 | 20618.4 |  | 0.735 |  | 1.097 |  |  |  |  | 
11 | CCCCCCC[C@H](O)CC(=O)CCc1ccc(O)c(OC)c1 [8-Gingerol] | 0.065 |  |  |  |  | -0.236 | -0.537 | 17076 |  | 27124.2 | 7027.77 |  |  | 
12 | O=c1c2cc(O)c(O)cc2oc2c([C@@H]3O[C@H](CO)[C@@H](O)[C@H](O)[C@H]3O)c(O)cc(O)c12 [Isomangiferin] | 0.307 |  | 24267.1 | 30032.6 | 18501.6 |  | 0.537 |  |  |  |  | 0.422 |  | 
13 | Cc1c(C)c2c(c(C)c1O)CCC(C)(CCCC(C)CCCC(C)CCCC(C)C)O2 (racemic) [DL-alpha-Tocopherol] | -0.849 | -0.496 |  | 16151.3 | 11251.7 |  | -0.142 | 13701.5 |  |  |  |  |  | 
14 | COc1cc2c(CCNC(C)=O)c[nH]c2cc1O [6-Hydroxymelatonin] | 0.345 |  | 19759.2 | 30495.8 | 9022.73 | -0.003 | -0.35 |  |  |  |  |  | −0.003 | 
15 | O=C(O)CCc1ccc(O)c(O)c1 [Dihydrocaffeic acid] | 0.014 |  |  |  |  | -0.454 | -0.922 | 14716.5 |  | 26515.6 | 2917.33 |  |  | 
16 | O=C(/C=C/c1ccc(O)cc1)CC(=O)/C=C/c1ccc(O)cc1 [Bisdemethoxycucurmin] | 0.602 |  | 22516.9 | 33572.4 | 11461.3 |  | -0.122 |  |  |  |  | 0.24 |  | 
17 | O=c1cc(-c2ccc(O)c(O)c2)oc2cc(O)c([C@@H]3O[C@H](CO)[C@@H](O)[C@H](O)[C@H]3O)c(O)c12 [Isoorientin] | 0.708 |  | 24030.3 | 34846.9 | 13213.7 |  | 0.042 |  |  |  |  | 0.375 |  | 
18 | COc1cc(-c2coc3c([C@@H]4O[C@H](CO)[C@@H](O)[C@H](O)[C@H]4O)c(O)ccc3c2=O)ccc1O [3'-Methoxypuerarin] | 0.567 |  | 22452.2 | 33160 | 11744.3 |  | -0.096 |  |  |  |  | 0.236 |  | 
19 | O=C(/C=C/c1ccc(O)c(O)c1)O[C@@H]1C[C@](O)(C(=O)O)C[C@@H](O)[C@H]1O [Chlorogenic acid] | 0.232 |  | 19631.7 | 29136 | 10127.4 |  | -0.247 |  |  |  |  |  |  | -0.007
20 | C[C@@H]1O[C@@H](OC[C@H]2O[C@@H](Oc3c(-c4ccc(O)cc4)oc4cc(O)cc(O)c4c3=O)[C@H](O[C@@H]3O[C@@H](C)[C@H](O)[C@@H](O)[C@H]3O)[C@@H](O)[C@@H]2O)[C@H](O)[C@H](O)[C@H]1O [Clitorin] | -0.088 | -0.528 |  | 25288.8 | 2427.91 |  | -0.968 | 13858.4 |  |  |  |  |  | 
21 | O=C(O)Cc1cc(O)ccc1O[C@@H]1O[C@H](CO)[C@@H](O)[C@H](O)[C@H]1O [Phaseoloidin] | -0.056 | -0.357 |  |  |  |  | -0.658 | 15704.2 |  | 25674.3 | 5734.06 |  |  | 
22 | COc1cc(CC(=O)C(=O)O)ccc1O [Vanilpyruvic acid] | 0.039 |  |  |  |  | -0.352 | -0.742 | 15824.3 |  | 26811.5 | 4837.1 |  |  | 
23 | Cc1cc(=O)oc2c(O)c(O)ccc12 [4-Methyldaphnetin] | -1.037 | -0.889 | 9377.72 | 13895.3 | 4860.11 |  | -0.74 |  |  |  |  |  |  | 
24 | COc1c(CC=C(C)C)c(O)cc2oc(=O)c(-c3ccc(O)cc3O)cc12 [Glycycoumarin] | 0.796 |  | 28718.5 | 35905.3 | 21531.6 |  | 0.821 |  | 0.808 |  |  |  |  | 
25 | CN(C)[C@@H]1C(O)=C(C(N)=O)C(=O)[C@@]2(O)C(O)=C3C(=O)c4c(O)cccc4[C@@](C)(O)[C@H]3C[C@@H]12.Cl [Tetracycline (hydrochloride)] | 0.657 |  | 26010.3 | 34234.2 | 17786.4 |  | 0.47 |  |  |  |  | 0.563 |  | 
26 | COc1ccc(-c2cc(=O)c3c(O)cc(O[C@@H]4O[C@H](CO)[C@@H](O)[C@H](O)[C@H]4O[C@@H]4O[C@@H](C)[C@H](O)[C@@H](O)[C@H]4O)cc3o2)cc1O [Neodiosmin] | 1.202 |  | 28108.4 | 40782.2 | 15434.5 |  | 0.25 |  | 0.726 |  |  |  |  | 
27 | CCc1c(Cl)c(O)c(Cl)c(O)c1C(=O)O[C@H]1[C@H](O)[C@H](OC)[C@H](OC/C2=C\C=C\C[C@H](O)/C(C)=C/[C@H](CC)[C@@H](O[C@@H]3OC(C)(C)[C@@H](OC(=O)C(C)C)[C@H](O)[C@@H]3O)/C(C)=C/C(C)=C/C[C@@H]([C@@H](C)O)OC2=O)O[C@@H]1C [Fidaxomicin] | 0.356 |  | 25523.7 | 30618.6 | 20428.7 |  | 0.717 |  |  |  |  | 0.537 |  | 
28 | Cc1cc(O)cc(O)c1 [Orcinol] | -1.362 |  | 9697.38 | 9999.31 | 9395.45 | -0.839 | -0.316 |  |  |  |  |  |  | 
29 | COc1cc(/C=C/C(=O)O[C@H]2C[C@@](O)(C(=O)O)C[C@H](O)[C@@H]2O)ccc1O (stereo in doubt) [3-Feruloylquinic acid] | 0.043 |  | 17749.2 | 26861 | 8637.46 |  | -0.387 |  |  |  |  |  |  | -0.172
30 | CC(=O)NCCc1c[nH]c2ccc(O)cc12 [N-Acetyl-5-hydroxytryptamine] | 0.285 |  |  |  |  | -0.235 | -0.756 | 17233.8 |  | 29776.2 | 4691.42 |  |  | 
